Laboratory results taken from ChEMBL document CHEMBL6182863, “Discovery of novel rigid STING PROTAC degraders as potential therapeutics for acute kidney injury” (Eur J Med Chem, 2025).
Converted amounts (≈) assume the structure as drawn. The source made the active and inactive calls. The rule behind the calls is not given here.

Assays:
[1] = MRT (0 to t) in male Sprague-Dawley rat at 2 mg/kg, iv measured after 12 hrs by LC-MS/MS analysis; assay type: ADME, organism-based; settings: in vivo
[2] = test system: Mus musculus; test: Renoprotective activity against cisplatin-induced C57BL/6J mouse acute kidney injury model assessed as survival rate at 50 mg/kg, ip measured after 72 hrs relative to control; assay type: functional
[3] = target: T1, Protein cereblon/Stimulator of interferon genes protein (Mus musculus) (UniProt Q3TBT3+Q8C7D2); test: In vivo inhibition of STING/TBK1/NF-kappaB signaling in C57BL/6J mouse assessed as decrease in STING protein level in kidney at 25 to 50 mg/kg, ip measured after 72 hrs by Western blotting analysis; assay type: functional, organism-based; settings: dose 25-50 mg/kg
[4] = target: T2, Protein cereblon/Stimulator of interferon genes protein (Homo sapiens, UniProt Q96SW2+Q86WV6); test: PROTAC activity at CRBN/STING in human THP-1 cells assessed as induction of STING degradation measured after 24 hrs by Western blotting analysis; assay type: cell-based
Target sequence in this assay (Q96SW2 whole entry): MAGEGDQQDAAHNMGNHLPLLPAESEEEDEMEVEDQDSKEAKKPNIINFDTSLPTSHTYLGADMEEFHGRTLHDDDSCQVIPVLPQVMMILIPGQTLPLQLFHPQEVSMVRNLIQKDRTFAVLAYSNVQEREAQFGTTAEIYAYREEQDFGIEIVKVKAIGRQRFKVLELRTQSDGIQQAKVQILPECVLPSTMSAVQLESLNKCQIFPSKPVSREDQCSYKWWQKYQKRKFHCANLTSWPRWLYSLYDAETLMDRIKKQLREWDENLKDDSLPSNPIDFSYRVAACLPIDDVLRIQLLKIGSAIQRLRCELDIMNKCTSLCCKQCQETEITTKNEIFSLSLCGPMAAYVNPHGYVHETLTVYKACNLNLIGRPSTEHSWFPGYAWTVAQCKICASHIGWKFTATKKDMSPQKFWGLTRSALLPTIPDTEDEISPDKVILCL
Target sequence in this assay (Q86WV6 whole entry): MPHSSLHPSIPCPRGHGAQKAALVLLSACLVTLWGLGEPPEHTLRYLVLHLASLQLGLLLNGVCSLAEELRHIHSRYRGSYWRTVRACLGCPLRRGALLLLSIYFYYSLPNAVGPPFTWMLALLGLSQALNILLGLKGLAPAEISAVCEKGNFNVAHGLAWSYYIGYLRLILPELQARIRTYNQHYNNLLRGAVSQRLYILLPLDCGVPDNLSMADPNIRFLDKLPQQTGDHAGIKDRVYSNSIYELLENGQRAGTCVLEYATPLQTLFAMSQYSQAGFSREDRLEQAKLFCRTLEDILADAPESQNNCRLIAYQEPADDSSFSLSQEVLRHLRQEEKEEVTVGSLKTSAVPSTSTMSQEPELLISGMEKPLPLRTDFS

[5] = AUC (0 to t) in male Sprague-Dawley rat at 2 mg/kg, iv measured after 12 hrs by LC-MS/MS analysis; assay type: ADME, organism-based; settings: in vivo
[6] = test system: THP-1; test: PROTAC activity at CRBN/ERK in human THP-1 cells assessed as induction of ERK degradation at 1.25 to 20 uM measured after 24 hrs by Western blotting analysis; assay type: cell-based; settings: dose 1.25-20 µM
[7] = test system: HK-2; test: Inhibition of ROS formation in human HK-2 cells measured after 24 hrs in presence of cisplatin by DAPI staining based fluorescence microscopic analysis; assay type: functional, cell-based; settings: dose 1.25-5 µM
[8] = target: Transcription factor p65 (Homo sapiens) (UniProt Q04206); test: Inhibition of NF-kappaB P65 nuclear translocation in human HK-2 cells at 0.25 to 5 uM by DAPI staining based fluorescence microscopic analysis; assay type: cell-based; settings: dose 0.25-5 µM
[9] = Acute toxicity in C57BL/6J mouse assessed as change in body weight at 125 mg/kg; assay type: organism-based; settings: in vivo
[10] = target: T1, Protein cereblon/Stimulator of interferon genes protein (Mus musculus); test: In vivo inhibition of STING/TBK1/NF-kappaB signaling in C57BL/6J mouse assessed as decrease in P-P65 protein level in kidney at 25 to 50 mg/kg, ip measured after 72 hrs by Western blotting analysis; assay type: functional, organism-based; settings: dose 25-50 mg/kg
[11] = test system: Mus musculus; test: Renoprotective activity against cisplatin-induced C57BL/6J mouse acute kidney injury model assessed as recovery of body weight administered intraperitoneally and measured after 72 hrs; assay type: functional, organism-based; settings: dose 25-50 mg/kg, route ip
[12] = Water solubility of the compound at 2 mg by HPLC analysis; assay type: physicochemical
[13] = Acute toxicity in C57BL/6J mouse assessed as change in body weight at 30 mg/kg; assay type: organism-based; settings: in vivo
[14] = Toxicity in cisplatin-induced acute kidney injury C57BL/6J mouse model assessed as morphological abnormality in liver at 25 to 50 mg/kg, ip by H and E staining based analysis; assay type: organism-based; settings: in vivo, dose 25-50 mg/kg
[15] = Metabolic stability in human liver microsomes assessed as half life; assay type: ADME, Microsome
[16] = test system: HK-2; test: Inhibition of STING downstream signal pathway in cisplatin stimulated human HK-2 cells assessed as reduction in STING protein level at 1.25 to 5 uM pretreated with cisplatin followed by compound addition by Western blotting analysis; assay type: cell-based; settings: dose 1.25-5 µM
[17] = target: T1, Protein cereblon/Stimulator of interferon genes protein (Mus musculus); test: In vivo inhibition of STING/TBK1/NF-kappaB signaling in C57BL/6J mouse assessed as decrease in P-TBK1 protein level in kidney at 25 to 50 mg/kg, ip measured after 72 hrs by Western blotting analysis; assay type: functional, organism-based; settings: dose 25-50 mg/kg
[18] = test system: Mus musculus; test: Renoprotective activity against cisplatin-induced C57BL/6J mouse acute kidney injury model assessed as decrease in body weight at 25 to 50 mg/kg, ip measured after 72 hrs; assay type: functional, organism-based; settings: dose 25-50 mg/kg
[19] = test system: THP-1; test: PROTAC activity at CRBN/LKB1 in human THP-1 cells assessed as induction of LKB1 degradation at 1.25 to 20 uM by Western blotting analysis; assay type: cell-based; settings: dose 1.25-20 µM
[20] = target: T1, Protein cereblon/Stimulator of interferon genes protein (Mus musculus); test: In vivo inhibition of STING/TBK1/NF-kappaB signaling in C57BL/6J mouse assessed as decrease in serum IL-6 level at 25 to 50 mg/kg, ip measured after 72 hrs by ELISA; assay type: functional, organism-based; settings: dose 25-50 mg/kg
[21] = Apparent volume of distribution in male Sprague-Dawley rat at 2 mg/kg, iv measured after 12 hrs by LC-MS/MS analysis; assay type: ADME, organism-based; settings: in vivo, read-out: Vz
[22] = Acute toxicity in C57BL/6J mouse assessed as change in body weight at 88 mg/kg; assay type: organism-based; settings: in vivo
[23] = test system: Mus musculus; test: Renoprotective activity against cisplatin-induced C57BL/6J mouse model assessed as reduction in renal injury administered intraperitoneally by H and E staining based analysis; assay type: functional, organism-based; settings: dose 25-50 mg/kg, route ip
[24] = Metabolic stability in human liver microsomes assessed as metabolic factor relative to control; assay type: ADME, Microsome
[25] = test system: Mus musculus; test: Renoprotective activity against cisplatin-induced C57BL/6J mouse acute kidney injury model assessed as survival rate at 25 mg/kg, ip measured after 72 hrs relative to control; assay type: functional
[26] = Acute toxicity in C57BL/6J mouse assessed as change in body weight at 179 mg/kg; assay type: organism-based; settings: in vivo
[27] = test system: H9c2; test: Cytotoxicity against rat H9c2 cells assessed as reduction in cell viability at 0.5 to 120 uM incubated for 24 hrs by MTT assay; assay type: toxicity, cell-based; settings: h9c2, 24 h, dose 0.5-120 µM
[28] = target: T2, Protein cereblon/Stimulator of interferon genes protein; test: PROTAC activity at CRBN/STING in human THP-1 cells assessed as induction of STING degradation at 5 uM incubated for 24 hrs in presence of bafilomycin by Western blotting analysis; assay type: cell-based
Target sequence in this assay (Q86WV6 whole entry, looked up): as the sequence (Q86WV6 whole entry) above
Target sequence in this assay (Q96SW2 whole entry, looked up): as the sequence (Q96SW2 whole entry) above

[29] = Cmax in male Sprague-Dawley rat at 2 mg/kg, iv measured after 12 hrs by LC-MS/MS analysis; assay type: ADME, organism-based; settings: in vivo
[30] = Cytotoxicity against rat BRL-3A cells assessed as reduction in cell viability at 0.5 to 120 uM incubated for 24 hrs by MTT assay; assay type: toxicity, cell-based; settings: dose 0.5-120 µM
[31] = target: T1, Protein cereblon/Stimulator of interferon genes protein (Mus musculus); test: In vivo inhibition of STING/TBK1/NF-kappaB signaling in C57BL/6J mouse assessed as decrease in serum CXCL10 level at 25 to 50 mg/kg, ip measured after 72 hrs by ELISA; assay type: functional, organism-based; settings: dose 25-50 mg/kg
[32] = AUC (0 to infinity) in male Sprague-Dawley rat at 2 mg/kg, iv measured after 12 hrs by LC-MS/MS analysis; assay type: ADME, organism-based; settings: in vivo
[33] = Half life in male Sprague-Dawley rat at 2 mg/kg, iv measured after 12 hrs by LC-MS/MS analysis; assay type: ADME, organism-based; settings: in vivo
[34] = MRT (0 to infinity) in male Sprague-Dawley rat at 2 mg/kg, iv measured after 12 hrs by LC-MS/MS analysis; assay type: ADME, organism-based; settings: in vivo
[35] = test system: HK-2; test: Inhibition of STING downstream signal pathway in cisplatin stimulated human HK-2 cells assessed as reduction in p-IRF3 level by […] analysis; assay type: cell-based; settings: dose 1.25-5 µM
[36] = target: T2, Protein cereblon/Stimulator of interferon genes protein; test: PROTAC activity at CRBN/STING in human THP-1 cells assessed as induction of STING degradation at 5 uM measured after 24 hrs by Western blotting analysis relative to control; assay type: cell-based
Target sequence in this assay (Q86WV6 whole entry, looked up): as the sequence (Q86WV6 whole entry) above
Target sequence in this assay (Q96SW2 whole entry, looked up): as the sequence (Q96SW2 whole entry) above

T1 sequence (Q3TBT3 whole entry, looked up): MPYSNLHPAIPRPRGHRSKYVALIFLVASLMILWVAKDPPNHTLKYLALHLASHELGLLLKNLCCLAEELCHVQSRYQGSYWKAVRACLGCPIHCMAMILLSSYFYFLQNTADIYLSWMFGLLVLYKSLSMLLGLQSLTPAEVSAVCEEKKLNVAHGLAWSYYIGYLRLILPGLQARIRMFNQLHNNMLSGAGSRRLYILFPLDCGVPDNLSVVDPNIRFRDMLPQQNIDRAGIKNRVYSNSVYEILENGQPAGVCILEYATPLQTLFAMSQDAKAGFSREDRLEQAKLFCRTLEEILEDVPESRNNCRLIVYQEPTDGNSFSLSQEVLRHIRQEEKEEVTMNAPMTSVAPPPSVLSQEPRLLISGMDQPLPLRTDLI
T1 sequence (Q8C7D2 whole entry, looked up): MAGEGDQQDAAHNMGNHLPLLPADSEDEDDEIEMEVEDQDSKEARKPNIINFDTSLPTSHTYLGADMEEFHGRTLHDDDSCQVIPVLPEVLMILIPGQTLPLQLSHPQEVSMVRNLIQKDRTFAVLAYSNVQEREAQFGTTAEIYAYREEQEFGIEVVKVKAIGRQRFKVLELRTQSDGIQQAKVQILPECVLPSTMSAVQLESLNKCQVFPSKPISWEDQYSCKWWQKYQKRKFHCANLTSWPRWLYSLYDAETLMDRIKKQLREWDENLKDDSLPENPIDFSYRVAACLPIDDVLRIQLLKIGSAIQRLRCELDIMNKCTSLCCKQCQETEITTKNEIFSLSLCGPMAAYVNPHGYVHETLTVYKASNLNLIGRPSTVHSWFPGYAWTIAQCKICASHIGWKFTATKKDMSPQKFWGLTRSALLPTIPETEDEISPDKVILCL
Chain of Transcription factor p65 (Homo sapiens) (Q04206 whole entry): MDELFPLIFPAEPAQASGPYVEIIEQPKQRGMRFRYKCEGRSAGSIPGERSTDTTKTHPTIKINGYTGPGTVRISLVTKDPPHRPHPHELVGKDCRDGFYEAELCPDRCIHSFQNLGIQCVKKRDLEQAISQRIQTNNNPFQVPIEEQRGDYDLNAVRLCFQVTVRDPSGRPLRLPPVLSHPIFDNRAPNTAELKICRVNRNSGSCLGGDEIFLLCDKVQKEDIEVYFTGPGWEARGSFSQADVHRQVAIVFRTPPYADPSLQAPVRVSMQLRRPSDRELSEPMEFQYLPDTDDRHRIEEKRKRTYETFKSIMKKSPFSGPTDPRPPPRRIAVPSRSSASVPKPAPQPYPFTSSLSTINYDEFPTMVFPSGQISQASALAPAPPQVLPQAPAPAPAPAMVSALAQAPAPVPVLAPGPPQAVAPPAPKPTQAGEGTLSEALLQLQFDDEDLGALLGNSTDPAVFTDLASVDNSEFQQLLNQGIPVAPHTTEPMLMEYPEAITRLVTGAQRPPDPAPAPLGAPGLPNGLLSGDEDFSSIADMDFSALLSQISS

Question: For `O=C(/C=C/C(=O)N1CCN(CC2CCN(c3cccc4c3C(=O)N(C3CCC(=O)NC3=O)C4=O)C2)CC1)Nc1ccc(NC(=O)c2ccc([N+](=O)[O-])o2)cc1` (stereo unspecified), which MRT last at 12 h [1] is on record?
Answer: 12 min

Question: What about the survival at 50 mg/kg [2] of the same molecule?
Answer: 100%

Question: And the inhibition [3]?
Answer: Active

Question: What about the DC50 [4] of the same molecule?
Answer: 620 nM

Question: And the AUC(0-t) at 12 h [5]?
Answer: 729 ng·h/mL

Question: And the Activity [6]?
Answer: inactive

Question: What about the inhibition [7] of the same molecule?
Answer: Dose-dependent-effect

Question: What about the inhibition [8] of the same molecule?
Answer: Active

Question: What about the Activity [9] of the same molecule?
Answer: 23.4 g

Question: What about the inhibition [10] of the same molecule?
Answer: Active

Question: And the Activity [11]?
Answer: Dose-dependent-effect

Question: What about the solubility [12] of the same molecule?
Answer: 3.317 µg/mL (≈ 4.41 µM)

Question: What about the Activity [13] of the same molecule?
Answer: 25.1 g

Question: What about the Activity [14] of the same molecule?
Answer: Non-toxic

Question: And the half-life [15]?
Answer: 20.1 min

Question: And the inhibition [16]?
Answer: Active

Question: And the inhibition [17]?
Answer: Active

Question: What about the Activity [18] of the same molecule?
Answer: Active

Question: And the Activity [19]?
Answer: inactive

Question: And the inhibition [20]?
Answer: Active

Question: What about the Vd [21] of the same molecule?
Answer: 3.9 L/kg

Question: And the Activity [22]?
Answer: 24.9 g

Question: And the Activity [23]?
Answer: Dose-dependent-effect

Question: What about the Activity [24] of the same molecule?
Answer: 15.8%

Question: And the survival at 25 mg/kg [25]?
Answer: 78%

Question: What about the Activity [26] of the same molecule?
Answer: 22.8 g

Question: What about the Activity [27] of the same molecule?
Answer: Non-toxic

Question: And the Activity [28]?
Answer: Active

Question: And the Cmax [29]?
Answer: 2390 ng/mL

Question: What about the Activity [30] of the same molecule?
Answer: Non-toxic

Question: What about the inhibition [31] of the same molecule?
Answer: Active

Question: And the AUC [32]?
Answer: 0.73 µg/ml.hr

Question: And the half-life [33]?
Answer: 51.6 min

Question: And the MRT inf [34]?
Answer: 12.6 min

Question: What about the inhibition [35] of the same molecule?
Answer: Dose-dependent-effect

Question: What about the Activity [36] of the same molecule?
Answer: 90.6%
